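Test compounds were applied to cells in 96-well plates for 48 hours at 5 doses. GI50 marks 50% less growth. TGI marks complete inhibition of growth.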
Assays:
Assay in all cases: NCI anticancer screen, dose series, 48 h
A498 renal = system: A498 renal
MDA-MB-231 breast = system: MDA-MB-231 breast
MDA-MB-435 = system: MDA-MB-435
NCI-H226 lung = system: NCI-H226 lung
OVCAR-3 ovarian = system: OVCAR-3 ovarian
PC-3 prostate = system: PC-3 prostate
T-47D breast = system: T-47D breast
MDA-N = system: MDA-N
SF-539 CNS = system: SF-539 CNS
SK-OV-3 ovarian = system: SK-OV-3 ovarian
RPMI-8226 leukemia = system: RPMI-8226 leukemia

| Structure (SMILES) | TGI (A498 renal) [µM] | TGI (MDA-MB-231 breast) [µM] | TGI (MDA-MB-435) [µM] | TGI (NCI-H226 lung) [µM] | TGI (OVCAR-3 ovarian) [µM] | TGI (PC-3 prostate) [µM] | TGI (T-47D breast) [µM] | TGI (MDA-N) [µM] | TGI (SF-539 CNS) [µM] | TGI (SK-OV-3 ovarian) [µM] | TGI (RPMI-8226 leukemia) [µM] | GI50 (A498 renal) [µM] | GI50 (MDA-MB-231 breast) [µM] | GI50 (MDA-MB-435) [µM] | GI50 (NCI-H226 lung) [µM] | GI50 (PC-3 prostate) [µM] | GI50 (SF-539 CNS) [µM] | GI50 (SK-OV-3 ovarian) [µM] | GI50 (T-47D breast) [µM] |
| --- | --- | --- | --- | --- | --- | --- | --- | --- | --- | --- | --- | --- | --- | --- | --- | --- | --- | --- | --- |
| c1ccc2sc(SCN(C3CCCCC3)C3CCCCC3)nc2c1 | > 100 | > 100 | > 100 | > 100 | > 100 | > 100 | 49.5 | – | – | – | – | – | – | – | – | – | – | – | – |
| COc1cc(S(=O)(=O)Nc2nc(-c3ccc(N)cc3)cs2)ccc1Cl | > 100 | > 100 | > 100 | > 100 | > 100 | > 100 | > 100 | > 100 | > 100 | > 100 | – | – | – | – | – | – | – | – | – |
| COc1ccc(OC)c(C#Cc2ccc(OC)c(C(=O)NCCc3ccc(F)cc3)c2)c1 | > 100 | – | 4.62 | – | – | > 100 | > 100 | – | – | – | > 100 | – | – | – | – | – | – | – | – |
| Cc1cc(N(CCCCl)CCCCl)ccc1C=Nc1cccc(Cl)c1 | – | 29.3 | 36.2 | 0.562 | 33.5 | 25.9 | 24.1 | – | – | 61.7 | 0.231 | – | – | – | – | – | – | – | – |
| COc1ccc([C@H]2C=C(c3cc(F)c(Cl)cc3Cl)NC(=S)N2)cc1 | 79.2 | > 100 | 56.4 | > 100 | > 100 | 65.7 | > 100 | 33.2 | > 100 | > 100 | 76 | – | – | – | – | – | – | – | – |
| CC(C)=CCC[C@](C)(O[C@@H]1O[C@H](CO)[C@@H](O)[C@H](O)[C@H]1O)[C@H]1CC[C@]2(C)[C@@H]1[C@H](O)C[C@@H]1[C@@]3(C)CC[C@H](O)C(C)(C)[C@@H]3[C@@H](O[C@@H]3O[C@H](CO)[C@@H](O)[C@H](O)[C@H]3O)C[C@]12C | > 100 | > 100 | > 100 | > 100 | > 100 | > 100 | > 100 | > 100 | > 100 | > 100 | > 100 | – | – | – | – | – | – | – | – |
| COc1cc2c(cc1Oc1ccc(OC)c3c1CC1c4c(cc(OC)c(OC)c4-3)CCN1C)CC1c3c(cc(OC)c(OC)c3-2)CCN1C (centres undefined) | 12.6 | – | – | 5.01 | 14.9 | – | – | – | 3.39 | 31.9 | 3.97 | – | – | – | – | – | – | – | – |
| O=c1cc(O)c2ccccc2o1 | > 100 | > 100 | > 100 | > 100 | > 100 | > 100 | > 100 | > 100 | > 100 | – | > 100 | – | – | – | – | – | – | – | – |
| Cn1c(Sc2ccc(-c3cccnc3)n2C)ccc1-c1cccnc1 | 47.6 | 37.1 | 29.1 | 51.1 | 27.3 | 31 | 44.2 | 25.3 | 41.8 | 60.9 | 23.4 | – | – | – | – | – | – | – | – |
| CCOC(=O)CCC(C(=O)OCC)n1nnc2ccc(Nc3c(C)[n+]([O-])c4cc(Cl)ccc4[n+]3[O-])cc21 (centres undefined) | – | – | 40.4 | 81.5 | 34.4 | > 100 | 44.3 | – | 39.9 | > 100 | 47 | – | – | – | – | – | – | – | – |
| COc1cc(O)c2c(c1)C(=O)c1cc(C)cc(O)c1C2=O | > 100 | – | – | > 100 | > 100 | – | – | – | > 100 | > 100 | > 100 | – | – | – | – | – | – | – | – |
| CCOC(=O)NC | > 100 | > 100 | > 100 | – | > 100 | > 100 | > 100 | > 100 | > 100 | > 100 | > 100 | – | – | – | – | – | – | – | – |
| Cc1c2cccc-2ccc2c1[nH]c1ccc(Br)cc12 | 37.9 | 18.8 | 16.7 | 5.6 | 13.9 | 14.2 | 4.01 | 18.8 | 19.1 | 28.7 | 10.2 | – | – | – | – | – | – | – | – |
| Nc1nnc(N)n1NC(=O)C(=O)Nc1ccc([N+](=O)[O-])cc1 | > 100 | – | – | > 100 | – | – | – | – | > 100 | > 100 | > 100 | – | – | – | – | – | – | – | – |
| NNc1ccccc1Cl | > 100 | > 100 | > 100 | > 100 | > 100 | > 100 | > 100 | > 100 | > 100 | > 100 | > 100 | – | – | – | – | – | – | – | – |
| Nc1ccc(Nc2c3ccccc3nc3ccccc23)cc1 | – | > 10 | > 10 | 7.52 | > 10 | > 10 | > 10 | > 10 | > 10 | > 10 | > 10 | – | – | – | – | – | – | – | – |
| O=C(O)C1=NNC(C(=O)O)=NN1 | – | – | – | > 100 | > 100 | – | – | – | > 100 | > 100 | > 100 | – | – | – | – | – | – | – | – |
| O=C1c2ccccc2C(=O)c2c1ccc(C(=O)O)c2-c1ccc2ccccc2c1 | 85.5 | 73.9 | 60 | 79.6 | 65.3 | 72.4 | 18.1 | 79.2 | 50.4 | > 100 | 83.8 | – | – | – | – | – | – | – | – |
| Cc1cc(=O)oc2c1cc(OCC(=O)OCCN1CCCCC1)c1occ(C)c12 | > 100 | – | – | > 100 | > 100 | – | – | – | > 100 | – | > 100 | – | – | – | – | – | – | – | – |
| CC(CO)(CO)Nc1ncnc2ccccc12 | > 100 | > 100 | > 100 | > 100 | > 100 | > 100 | > 100 | > 100 | – | – | – | – | – | – | – | – | – | – | – |
| NC(=O)Nc1cc(O)ccc1N=Nc1ccc(S(=O)(=O)Nc2ccccn2)cc1 | > 100 | – | – | – | > 100 | – | – | – | > 100 | > 100 | > 100 | – | – | – | – | – | – | – | – |
| C[n+]1ccc(-c2cc[n+](C)cc2)cc1 | > 50.3 | – | – | 43.1 | > 46.6 | – | – | – | > 46.4 | > 100 | > 100 | – | – | – | – | – | – | – | – |
| Fc1ccc(-c2nnc3sc(COc4ccccc4Cl)nn23)cc1Cl | 93.6 | > 100 | > 100 | 57.1 | – | > 100 | > 100 | – | > 100 | > 100 | – | 34.6 | 44.5 | 49.5 | 22.8 | 30.7 | 41.4 | 93.3 | 32.8 |
| CC[C@H](C)C1=C(O)[N@+]2([O-])Oc3ccc(-c4c(O)c(O)c(-c5ccc(OC(C)=O)cc5)c(OC(C)=O)c4OC(C)=O)cc3O[C@]2([C@@H](C)CC)C(=O)N1O | > 50 | > 50 | > 50 | – | > 50 | > 50 | > 50 | > 50 | > 50 | > 50 | 42 | – | – | – | – | – | – | – | – |
| CC1(O)CC23CC1CCC2(C)C12CCCC(C)(C(=O)O1)C2CC3O (centres undefined) | > 100 | > 100 | > 100 | > 100 | – | > 100 | > 100 | > 100 | > 100 | > 100 | – | – | – | – | – | – | – | – | – |
| COc1c(Cl)cc(S(=O)O)cc1Cl | > 100 | – | – | – | > 100 | – | – | – | > 100 | > 100 | – | – | – | – | – | – | – | – | – |
